Experimental data reported in ChEMBL document CHEMBL5137135, “Highly Oxidized Germacranolides from Elephantopus tomentosus and the Configurational Revision of Some Previously Reported Analogues” (J Nat Prod, 2022).
Activity calls are given as the source filed them. The rule behind the calls is not given here.

Columns and labels:
Format in all cases: functional, cell-based
[1] = tested on: Hep 3B2; assay: Cytotoxicity against human Hep3B cells assessed as inhibition of cell growth by MTT assay
[2] = tested on: HepG2; assay: Cytotoxicity against human HepG2 cells assessed as inhibition of cell growth by MTT assay
[3] = tested on: HepG2; assay: Induction of mitochondrial membrane potential loss in human HepG2 cells by JC-1 staining based fluorescence assay
[4] = tested on: HepG2; assay: Induction of apoptosis in human HepG2 cells at 1 to 4 uM after 48 hrs by Hoechst 33258 staining based assay; details: dose 1-4 µM
[5] = tested on: HepG2; assay: Induction of apoptosis in human HepG2 cells assessed as cellular shrinkage at 1 to 4 uM after 48 hrs by phase contrast microscopic analysis; details: dose 1-4 µM
[6] = tested on: Hep 3B2; assay: Induction of apoptosis in human Hep3B cells at 1 to 4 uM after 48 hrs by Hoechst 33258 staining based assay; details: dose 1-4 µM
[7] = tested on: HepG2; assay: Induction of apoptosis in human HepG2 cells assessed as membrane blebbing at 1 to 4 uM after 48 hrs by phase contrast microscopic analysis; details: dose 1-4 µM
[8] = tested on: Hep 3B2; assay: Induction of mitochondrial membrane potential loss in human Hep3B cells by JC-1 staining based fluorescence assay
[9] = tested on: Hep 3B2; assay: Induction of apoptosis in human Hep3B cells assessed as membrane blebbing at 1 to 4 uM after 48 hrs by phase contrast microscopic analysis; details: dose 1-4 µM
[10] = tested on: Hep 3B2; assay: Induction of apoptosis in human Hep3B cells assessed as cellular shrinkage at 1 to 4 uM after 48 hrs by phase contrast microscopic analysis; details: dose 1-4 µM

SMILES | IC50 [1] | IC50 [2] | other results
C=C1C[C@H](OC(=O)/C(C)=C/C)[C@H]2C(=C)C(=O)O[C@@H]2[C@@H]2O[C@@](O)(C1)C[C@@]2(C)O | 3.1 µM | 8.7 µM | 
C=C1C[C@H](OC(=O)/C(C)=C/C)[C@H]2C(=C)C(=O)O[C@@H]2[C@@H]2O[C@](OC)(C=C2C)C1 | 8.5 µM | 3.8 µM | 
C=C1C[C@H](OC(=O)/C(C)=C/C)[C@H]2C(=C)C(=O)O[C@@H]2[C@@H]2O[C@@](OC)(C1)C[C@@]2(C)O | 9.5 µM | 9.8 µM | 
C=C1C(=O)O[C@H]2[C@H]1[C@@H](OC(=O)/C(C)=C/C)C/C(C)=C\[C@@]1(OC)C=C(C)[C@H]2O1 | 5 µM | 9.7 µM | 
C=C1C[C@H](OC(=O)C(=C)C)[C@H]2C(=C)C(=O)O[C@@H]2[C@@H]2O[C@@](O)(C1)C[C@@]2(C)OC | 7.5 µM | 8.5 µM | 
C=C1C[C@H](OC(=O)C(=C)C)[C@H]2C(=C)C(=O)O[C@@H]2[C@@H]2O[C@@](OC)(C1)C[C@@]2(C)O | 2.4 µM | 8.1 µM | 
C=C1C(=O)O[C@H]2[C@H]1[C@@H](OC(=O)/C(C)=C/C)C/C(C)=C\[C@@]1(c3cccc(O)c3O)C=C(C)[C@H]2O1 | 5.8 µM | 4.5 µM | 
C/C=C(/C)C(=O)O[C@H]1C/C(C)=C\[C@@]2(OC)C=C(C)[C@@H](O2)[C@H]2OC(=O)[C@@H](COC)[C@@H]21 | > 10 µM | > 10 µM | 
C=C(C)C(=O)O[C@H]1C/C(C)=C\[C@@]2(OC)C=C(C)[C@@H](O2)[C@H]2OC(=O)C(=C)[C@@H]21 | 8.5 µM | 3.8 µM | 
C=C1C(=O)O[C@H]2[C@H]1[C@@H](OC(=O)/C(C)=C\C)C/C(C)=C\[C@@]1(OC)C=C(C)[C@H]2O1 | 3.8 µM | 3.5 µM | 
C/C=C(\C)C(=O)O[C@H]1C/C(C)=C\[C@@]2(OC)C=C(C)[C@@H](O2)[C@H]2OC(=O)[C@@H](CO)[C@@H]21 | > 10 µM | > 10 µM | 
C=C(C)C(=O)O[C@H]1C/C(C)=C\[C@@]2(OC)C=C(C)[C@@H](O2)[C@H]2OC(=O)[C@@H](COC)[C@@H]21 | > 10 µM | > 10 µM | 
C=C1C(=O)O[C@H]2[C@H]1[C@@H](OC(=O)/C(C)=C/C)C/C(C)=C\[C@@]1(c3ccc(O)c(O)c3)C=C(C)[C@H]2O1 | 3.6 µM | 3 µM | 
C=C1C[C@H](OC(=O)C(=C)C)[C@H]2C(=C)C(=O)O[C@@H]2[C@@H]2O[C@@](O)(C1)C[C@@]2(C)O | 6.6 µM | 7.3 µM | 
C=C(C)C(=O)O[C@H]1C/C(C)=C\[C@@]2(c3cccc(O)c3O)C=C(C)[C@@H](O2)[C@H]2OC(=O)C(=C)[C@@H]21 | 5.6 µM | 4.3 µM | 
C=C1C[C@H](OC(=O)C(=C)C)[C@H]2C(=C)C(=O)O[C@@H]2[C@@H]2O[C@](OC)(C=C2C)C1 | 2.4 µM | 2.2 µM | Activity [3]: Active; Activity [4]: Active; Activity [5]: Active; Activity [6]: Active; Activity [7]: Active; Activity [8]: Active; Activity [9]: Active; Activity [10]: Active
C=C(C)C(=O)O[C@H]1C/C(C)=C\[C@@]2(c3ccc(O)c(O)c3)C=C(C)[C@@H](O2)[C@H]2OC(=O)C(=C)[C@@H]21 | 3.7 µM | 5.7 µM | 
